Data as given in paper PMC5386833 (Oncogene, 2016).

Target: BRCA1/BARD1 (Homo sapiens, UniProt P38398+Q99728)
Test: ReBiL luminescence protein interaction assay, BRCA1/BARD1 negative control
Settings: dosing above 10 μM, 10% serum

Sequence of BRCA1/BARD1 (P38398 whole entry, species assumed): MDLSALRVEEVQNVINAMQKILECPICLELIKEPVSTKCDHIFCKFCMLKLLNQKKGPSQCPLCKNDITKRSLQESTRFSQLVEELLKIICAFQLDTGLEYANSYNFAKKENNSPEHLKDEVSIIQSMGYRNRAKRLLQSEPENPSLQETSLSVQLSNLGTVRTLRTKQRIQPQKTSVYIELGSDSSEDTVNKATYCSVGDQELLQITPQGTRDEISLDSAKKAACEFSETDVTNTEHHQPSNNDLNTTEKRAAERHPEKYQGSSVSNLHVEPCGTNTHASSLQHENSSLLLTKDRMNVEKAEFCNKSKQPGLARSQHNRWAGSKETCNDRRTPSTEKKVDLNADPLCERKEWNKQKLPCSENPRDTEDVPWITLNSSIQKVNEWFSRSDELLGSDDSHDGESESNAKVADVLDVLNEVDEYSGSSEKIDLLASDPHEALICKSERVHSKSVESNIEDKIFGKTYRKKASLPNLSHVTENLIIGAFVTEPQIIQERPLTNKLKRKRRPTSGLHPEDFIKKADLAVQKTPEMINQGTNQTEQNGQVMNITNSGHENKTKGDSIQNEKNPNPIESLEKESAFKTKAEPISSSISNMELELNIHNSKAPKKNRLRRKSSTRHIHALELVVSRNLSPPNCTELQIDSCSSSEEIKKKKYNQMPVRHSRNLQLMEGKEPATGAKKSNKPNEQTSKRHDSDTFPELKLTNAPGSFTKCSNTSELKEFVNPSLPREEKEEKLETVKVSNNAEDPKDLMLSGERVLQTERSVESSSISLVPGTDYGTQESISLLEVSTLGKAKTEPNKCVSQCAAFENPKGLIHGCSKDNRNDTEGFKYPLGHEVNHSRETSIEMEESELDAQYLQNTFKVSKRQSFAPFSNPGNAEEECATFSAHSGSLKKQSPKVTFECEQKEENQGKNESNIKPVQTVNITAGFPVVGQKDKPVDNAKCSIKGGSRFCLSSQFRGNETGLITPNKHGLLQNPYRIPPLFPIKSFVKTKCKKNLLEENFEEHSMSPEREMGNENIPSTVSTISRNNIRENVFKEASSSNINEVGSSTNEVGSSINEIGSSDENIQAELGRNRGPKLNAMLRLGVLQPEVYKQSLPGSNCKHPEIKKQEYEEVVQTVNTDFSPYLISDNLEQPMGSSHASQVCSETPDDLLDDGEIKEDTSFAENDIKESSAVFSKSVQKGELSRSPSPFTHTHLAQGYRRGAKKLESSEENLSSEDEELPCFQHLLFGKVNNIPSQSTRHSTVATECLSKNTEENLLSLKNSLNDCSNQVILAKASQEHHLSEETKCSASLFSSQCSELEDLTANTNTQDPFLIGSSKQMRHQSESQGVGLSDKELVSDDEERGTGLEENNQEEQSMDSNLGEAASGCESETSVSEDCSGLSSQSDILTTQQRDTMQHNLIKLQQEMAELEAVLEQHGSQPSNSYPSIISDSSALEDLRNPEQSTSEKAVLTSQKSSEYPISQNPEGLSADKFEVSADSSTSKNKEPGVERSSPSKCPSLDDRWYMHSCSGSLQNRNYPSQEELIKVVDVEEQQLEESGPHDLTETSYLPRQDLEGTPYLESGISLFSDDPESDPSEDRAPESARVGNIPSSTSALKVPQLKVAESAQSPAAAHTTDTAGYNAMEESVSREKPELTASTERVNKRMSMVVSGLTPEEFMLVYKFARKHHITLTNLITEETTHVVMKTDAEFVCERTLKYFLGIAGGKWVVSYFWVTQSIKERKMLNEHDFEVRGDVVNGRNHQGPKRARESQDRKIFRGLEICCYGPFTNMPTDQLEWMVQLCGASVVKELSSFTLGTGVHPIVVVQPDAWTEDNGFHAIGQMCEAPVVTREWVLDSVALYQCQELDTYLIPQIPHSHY
Sequence of BRCA1/BARD1 (Q99728 whole entry, species assumed): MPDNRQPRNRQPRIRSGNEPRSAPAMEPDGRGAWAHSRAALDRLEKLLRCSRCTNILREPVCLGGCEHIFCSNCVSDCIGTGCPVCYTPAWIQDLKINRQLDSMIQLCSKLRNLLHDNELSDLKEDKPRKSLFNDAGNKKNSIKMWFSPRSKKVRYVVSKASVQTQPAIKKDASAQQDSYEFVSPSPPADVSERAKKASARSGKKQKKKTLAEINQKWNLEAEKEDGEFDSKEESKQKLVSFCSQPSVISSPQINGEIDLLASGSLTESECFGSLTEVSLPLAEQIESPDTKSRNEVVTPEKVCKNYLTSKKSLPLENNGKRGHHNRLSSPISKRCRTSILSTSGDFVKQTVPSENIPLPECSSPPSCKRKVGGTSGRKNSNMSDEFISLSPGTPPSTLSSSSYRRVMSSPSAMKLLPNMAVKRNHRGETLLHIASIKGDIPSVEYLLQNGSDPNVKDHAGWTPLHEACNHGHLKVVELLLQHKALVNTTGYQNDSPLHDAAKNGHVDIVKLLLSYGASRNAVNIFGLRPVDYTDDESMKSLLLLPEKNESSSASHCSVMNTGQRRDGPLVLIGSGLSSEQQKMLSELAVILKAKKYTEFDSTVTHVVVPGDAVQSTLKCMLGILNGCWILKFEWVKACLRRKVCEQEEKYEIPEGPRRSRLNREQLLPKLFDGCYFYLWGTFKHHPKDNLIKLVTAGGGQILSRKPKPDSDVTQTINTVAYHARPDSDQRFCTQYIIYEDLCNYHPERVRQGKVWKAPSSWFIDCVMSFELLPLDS

ReBiL signal suppression in BRCA1/BARD1 cell line above 10 μM: nonspecific activity
Structure (SMILES): COc1ccc(C2=N[C@@H](c3ccc(Cl)cc3)[C@@H](c3ccc(Cl)cc3)N2C(=O)N2CCNC(=O)C2)c(OC(C)C)c1 [Nutlin-3a]
